# Columns and labels:
# [1] = assay type: in vivo
# Text: An adverse event was any unfavorable and unintended sign (including an abnormal laboratory finding, for example), symptom, or disease temporally associated with the use of a medicinal product, whether or not considered related to the medicinal product. Changes associated with normal growth and development not varying in frequency or magnitude from that ordinarily anticipated clinically are not adverse events (for example, onset of menstruation occurring at a physiologically appropriate time). Clinical adverse events were described by diagnosis and not by symptoms when possible (for example, cold or seasonal allergies, instead of “runny nose”).
# The severity of adverse events was graded on a 3-point scale and reported in detail as indicated on the Case Report Form: mild—easily tolerated, causing minimal discomfort, and not interfering with normal everyday activities; moderate—sufficiently discomforting to interfere with normal everyday activities; and severe—incapacitating and/or preventing normal everyday activities.
# Subjects were instructed to promptly report any adverse event. The serious adverse event was assessed for the following details: seriousness of event, start date, stop date, intensity, frequency, relationship to test drug, action taken regarding test drug, treatment required, and outcome to date. These details were recorded on the Case Report Form. Such preliminary reports were followed by detailed descriptions that included copies of hospital case reports, autopsy reports, and other documents when requested and applicable.
# Blood and urine were collected at the screening visit and Day 29 for clinical chemistry, hematology, urinalysis, and pregnancy testing. In the event of an abnormal laboratory test value, the test was repeated within one week, and the subject was followed up until the value returned to the normal range and/or until an adequate explanation of the abnormality was found.
# Values were obtained for systolic and diastolic blood pressure, heart rate, and respiration rate on the screening visit and all other study visits. All values outside the pre-defined ranges were flagged in the subject data listings. Electrocardiography (twelve lead) was used to obtain ventricular rate (VR), QT, Q-Tc intervals, […] (PR), and QRS duration. A blood sample (10 mL whole blood) was taken from each subject at the Screening Visit for CYP2D6 genotyping to determine which subjects were poor metabolizers of DM and which were extensive metabolizers. Blood samples were taken on Day 29 for the determination of concentrations of DM, DX, and Q in plasma. The relationship between the concentration of drug in plasma and changes in CNS-LS scores was determined, and the effect of the CYP2D6 genotype on this relationship was evaluated.
# [2] = Clinical Study #5: concentrations in plasma of DM, DX and Q and correlation with pain intensity; assay type: in vivo, human; conditions: final visit; for Concentration in plasma, Mean / Concentration in plasma, Median: extensive metabolizers
# Description: Subjects visited the clinic every two weeks during the four-week duration of the study and were contacted by telephone during weeks without clinic visits. At each subsequent study visit or weekly phone call, the subjects were given the Pain Intensity Rating Scale and the Pain Relief Rating Scale and were queried regarding any adverse events that might have occurred since their previous visit. Subjects were administered the Peripheral Neuropathy Quality of Life (QOL) Instrument on Days 1 and 29 (or the final visit). Blood samples were taken at the visits on Day 15 and Day 29 to determine concentrations in plasma of DM, DX, and Q.
# [3] = system: ALS subjects with pseudobulbar affect; assay: Clinical Study #4: laughing/crying episode counts (diary); assay type: in vivo, human
# Description: Diary cards were collected on Day 15 and at the time of study completion.
# The primary efficacy variable was the CNS-LS score. All efficacy variables involving a change were determined by the baseline score being subtracted from the mean of the non-missing scores on Days 15 and 29. The secondary efficacy variables were laughing/crying episodes, QOL scores, and QOR scores. […]
# Secondary efficacy was assessed by using two, 10-cm visual analog scales (VAS). One scale asked subjects to rate how much uncontrollable laughter, tearfulness, or anger had affected the overall quality of their life during the past week, and one scale asked subjects to rate how much uncontrollable laughter, tearfulness, or anger had affected the quality of their relationships with others during the past week. Each scale required less than one minute to complete. The subjects recorded episodes of pathological laughing and crying in a diary daily.
# An analysis of secondary efficacy data was conducted.
# [4] = Clinical Study #1: adverse events in dextromethorphan phenotyping and quinidine dose determination study; conditions: single oral dose 30 mg capsule; headache, mild
# Description: A phenotyping study directed to dextromethorphan was conducted. The study was an open-label single dose study. Subjects were screened to ensure they met the inclusion and exclusion criteria. Subjects received a single oral dose of dextromethorphan hydrobromide 30 mg capsule taken with 240 mL of tap water. A total of fifty-eight subjects were screened and fifty subjects dosed. The study determined each subject's ability to metabolize dextromethorphan. Subjects who met the inclusion/exclusion criteria remained in house for dosing. Each subject was administered one 30 mg capsule (P.M.) of dextromethorphan. Urine was collected predose through 12 hours postdose and analyzed for dextromethorphan and dextrorphan.
# The study was an open-label, randomized, multiple dose study. Subjects identified as extensive metabolizers received an evening dose on Day 1, at 12-hour intervals for the next six days, with a final morning dose on Day 8. All subjects were instructed to dose themselves at home on eight occasions with medication dispensed to them. Subjects maintained a diary during the study to record adverse effects. […]
# A total of eight blood samples (40 mL) were drawn during the study (including the dextromethorphan screen) for drug analysis. […] At the end of the interval, the total volume was recorded and two aliquots were frozen at −20° C. until assayed for dextromethorphan and dextrorphan.
# [5] = ITT population, diary, weighted by days in the study
# [6] = proportional-variance (constant dispersion) negative binomial model
# [7] = quadratic-variance (mean dispersion) negative binomial model
smiles,measurement,setting,value
"COc1ccc2c(c1)[C@]13CCCCC1[C@H](C2)N(C)CC3 (single isomer, unassigned; (+)) [Dextromethorphan, (+)-3-methoxy-N-methylmorphinan]",Subjects with dizziness,"[1]; 28 days, twice daily",15.2%
same,Subjects with loose stools,"[1]; 28 days, twice daily",Three
same,Subjects with nausea,"[1]; 28 days, twice daily",6.1%
same,Subjects with somnolence,"[1]; 28 days, twice daily",3.0%
same,Subjects who withdrew because of adverse events,"[1]; human, in vivo, 29 days",6.1%
same,"CPK, change Baseline to Day 29",[1]; relative to the 30DM/30Q group,significant increase in CPK
same,"Concentration in plasma, Mean",[2]; DM/Q MTD 30 mg,59.0 ng/mL
same,"Concentration in plasma, Median",[2]; DM/Q MTD 30 mg,67.4 ng/mL
same,"Concentration in plasma, Mean",[2]; DM/Q MTD 60 mg,46.2 ng/mL
same,"Concentration in plasma, Median",[2]; DM/Q MTD 60 mg,1.5 ng/mL
same,"Concentration in plasma, Mean",[2]; DM/Q MTD 90 mg,117.0 ng/mL
same,"Concentration in plasma, Median",[2]; DM/Q MTD 90 mg,117.0 ng/mL
same,"Concentration in plasma, Mean",[2]; DM/Q MTD 120 mg,192.6 ng/mL
same,"Concentration in plasma, Median",[2]; DM/Q MTD 120 mg,178.0 ng/mL
same,"Concentration in plasma, Mean","[2]; Total, all MTDs",153.7 ng/mL
same,"Concentration in plasma, Median","[2]; Total, all MTDs",144.5 ng/mL
same,Concentration in plasma,[2]; poor metabolizer (MTD of 60 mg),126.4 ng/mL
same,"Weekly episode counts, Crying, Max","[3]; ITT population, diary",21.00
same,"Weekly episode counts, Crying, Median","[3]; ITT population, diary",0.70
same,"Weekly episode counts, Crying, Min","[3]; ITT population, diary",0.00
same,"Weekly episode counts, Laughing, Max","[3]; ITT population, diary",726.55
same,"Weekly episode counts, Laughing, Median","[3]; ITT population, diary",2.50
same,"Weekly episode counts, Laughing, Min","[3]; ITT population, diary",0.00
same,"Weekly episode counts, Laughing/Crying, Max","[3]; ITT population, diary",726.55
same,"Weekly episode counts, Laughing/Crying, Median","[3]; ITT population, diary",8.97
same,"Weekly episode counts, Laughing/Crying, Min","[3]; ITT population, diary",0.00
same,"Weekly episode counts, Crying, Wtd. Mean",[3]; [5],4.30
same,"Weekly episode counts, Laughing, Wtd. Mean",[3]; [5],35.29
same,"Weekly episode counts, Laughing/Crying, Wtd. Mean",[3]; [5],39.58
same,"Total episodes, times greater than in the 30DM/30Q group",[3]; Poisson regression model with adjustment for center,6.4
same,"Total episodes, ratio to the 30DM/30Q group","[3]; Poisson regression model, outlier omitted",2.3
same,"Crying, estimated ratio relative to the named group",[3]; [6],2.0
same,"Laughing, estimated ratio relative to the named group",[3]; [6],1.4
same,"Total counts, estimated ratio relative to the named group",[3]; [6],1.7
same,"Laughing, estimated ratio relative to the named group","[3]; proportional-variance negative binomial model, outlier subject omitted",1.5
same,"Crying rates, factor between 30DM/30Q and the named group",[3]; [7],twice
same,"Laughing rates, factor between 30DM/30Q and the named group",[3]; [7],2.6
same,"Total episode rates, factor between 30DM/30Q and the named group",[3]; [7],2.6
same,Adverse effects reported during the phenotyping study,[4],One
